{"source": "ChEMBL document CHEMBL5104218", "about": "“Effects of 6-Aminonicotinic Acid Esters on the Reprogrammed Epigenetic State of Distant Metastatic Pancreatic Carcinoma” (ACS Med Chem Lett, 2022)", "key": {"[1]": {"target": "T1, 6-phosphogluconate dehydrogenase, decarboxylating (Homo sapiens) (UniProt P52209)", "T1 sequence (whole entry)": "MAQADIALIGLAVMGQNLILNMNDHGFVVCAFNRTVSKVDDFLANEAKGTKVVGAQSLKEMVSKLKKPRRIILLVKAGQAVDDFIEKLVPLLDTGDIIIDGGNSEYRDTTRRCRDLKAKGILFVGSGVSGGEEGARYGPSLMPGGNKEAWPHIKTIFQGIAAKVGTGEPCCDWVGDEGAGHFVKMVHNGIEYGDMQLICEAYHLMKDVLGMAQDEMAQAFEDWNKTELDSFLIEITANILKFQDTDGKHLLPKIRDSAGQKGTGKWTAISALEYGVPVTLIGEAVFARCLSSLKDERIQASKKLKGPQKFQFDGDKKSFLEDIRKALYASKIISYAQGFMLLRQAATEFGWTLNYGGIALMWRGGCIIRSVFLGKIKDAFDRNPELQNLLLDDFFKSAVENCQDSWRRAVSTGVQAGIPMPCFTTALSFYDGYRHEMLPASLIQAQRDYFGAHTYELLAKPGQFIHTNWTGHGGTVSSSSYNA", "experiment": "Inhibition of 6PGD in human A38-5 cells assessed as increase in intracellular H3K9me3 level at 0.1 to 1000 uM incubated for 45 mins by HTRF assay", "type": "cell-based", "conditions": "dose 0.1-1000 µM"}, "[2]": {"target": "T1, 6-phosphogluconate dehydrogenase, decarboxylating (Homo sapiens)", "experiment": "Inhibition of 6PGD in human A38-5 cells assessed as fold increase in intracellular H3K9me3 level at 250 uM incubated for 45 mins by HTRF assay", "type": "cell-based"}, "[3]": {"target": "T1, 6-phosphogluconate dehydrogenase, decarboxylating (Homo sapiens)", "experiment": "Inhibition of 6PGD in human A38-5 cells assessed as fold increase in 6PG level at 250 uM incubated for 72 hrs by mass spectrometry", "type": "cell-based"}, "[4]": {"target": "T1, 6-phosphogluconate dehydrogenase, decarboxylating (Homo sapiens)", "experiment": "Inhibition of 6PGD in human A38-5 cells assessed as increase in Ru-5-P level at 250 uM incubated for 72 hrs by mass spectrometry", "type": "cell-based"}, "[5]": {"experiment": "Neurotoxicity against Sprague-Dawley rat Primary hippocampal neuron assessed as increase in TUNEL positive cells at 5 uM incubated for 24 hrs by TUNEL staining based microscopy", "type": "toxicity, cell-based", "conditions": "hippocampal neurone"}, "[6]": {"target": "Glucose-6-phosphate 1-dehydrogenase (Homo sapiens) (UniProt P11413)", "sequence (P11413 whole entry)": "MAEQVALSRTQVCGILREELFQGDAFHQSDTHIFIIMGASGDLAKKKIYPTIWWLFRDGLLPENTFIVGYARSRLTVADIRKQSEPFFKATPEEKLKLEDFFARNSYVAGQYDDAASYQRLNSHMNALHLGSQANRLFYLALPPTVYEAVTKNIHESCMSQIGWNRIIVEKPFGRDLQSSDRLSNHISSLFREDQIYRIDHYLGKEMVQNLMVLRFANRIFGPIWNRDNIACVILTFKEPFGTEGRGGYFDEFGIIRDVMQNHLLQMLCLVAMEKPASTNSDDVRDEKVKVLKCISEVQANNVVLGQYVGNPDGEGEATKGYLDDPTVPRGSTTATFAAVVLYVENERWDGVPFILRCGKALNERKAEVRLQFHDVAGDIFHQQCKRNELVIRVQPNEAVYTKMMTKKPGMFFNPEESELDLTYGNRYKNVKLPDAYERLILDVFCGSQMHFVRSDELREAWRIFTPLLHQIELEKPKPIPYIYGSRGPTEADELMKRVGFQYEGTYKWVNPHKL", "experiment": "Inhibition of G6PD in human A38-5 cells assessed as fold increase in G6P level at 250 uM incubated for 72 hrs by mass spectrometry", "type": "cell-based"}, "[7]": {"experiment": "Neurotoxicity against Sprague-Dawley rat Primary hippocampal neuron assessed as increase in TUNEL positive cells at 50 uM incubated for 24 hrs by TUNEL staining based microscopy", "type": "toxicity, cell-based", "conditions": "hippocampal neurone"}, "[8]": {"target": "T1, 6-phosphogluconate dehydrogenase, decarboxylating (Homo sapiens)", "experiment": "Inhibition of 6PGD in human A38-5 cells assessed as increase in Ru-5-P level at 15.6 uM incubated for 72 hrs by mass spectrometry", "type": "cell-based"}, "[9]": {"target": "T1, 6-phosphogluconate dehydrogenase, decarboxylating (Homo sapiens)", "experiment": "Inhibition of 6PGD in human A38-5 cells assessed as increase in intracellular H3K9me3 expression level at 1 to 250 uM incubated for 72 hrs by western blot analysis", "type": "cell-based", "conditions": "dose 1-250 µM"}, "[10]": {"target": "T1, 6-phosphogluconate dehydrogenase, decarboxylating (Homo sapiens)", "experiment": "Inhibition of 6PGD in human A38-5 cells assessed as increase in intracellular H3K9me3 level at 1 uM incubated for 45 mins by HTRF assay", "type": "cell-based"}, "[11]": {"target": "T1, 6-phosphogluconate dehydrogenase, decarboxylating (Homo sapiens)", "experiment": "Inhibition of 6PGD in human A38-5 cells assessed as fold increase in 6PG level at 15.6 uM incubated for 72 hrs by mass spectrometry", "type": "cell-based"}, "A38-5": {"tested_on": "A38-5", "experiment": "Cytotoxicity against human A38-5 cells assessed as reduction in cell viability at 0.06 to 250 uM incubated for 72 hrs by CellTiter-Glo assay relative to 6AN", "type": "functional, cell-based", "conditions": "dose 0.06-250 µM"}, "[12]": {"target": "Glucose-6-phosphate 1-dehydrogenase (Homo sapiens) (UniProt P11413)", "experiment": "Inhibition of G6PD in human A38-5 cells assessed as fold increase in G6P level at 15.6 uM incubated for 72 hrs by mass spectrometry", "type": "cell-based"}, "Glutathione reductase": {"target": "T2, Glutathione reductase (Rattus norvegicus, UniProt P70619)", "T2 sequence (P70619 whole entry)": "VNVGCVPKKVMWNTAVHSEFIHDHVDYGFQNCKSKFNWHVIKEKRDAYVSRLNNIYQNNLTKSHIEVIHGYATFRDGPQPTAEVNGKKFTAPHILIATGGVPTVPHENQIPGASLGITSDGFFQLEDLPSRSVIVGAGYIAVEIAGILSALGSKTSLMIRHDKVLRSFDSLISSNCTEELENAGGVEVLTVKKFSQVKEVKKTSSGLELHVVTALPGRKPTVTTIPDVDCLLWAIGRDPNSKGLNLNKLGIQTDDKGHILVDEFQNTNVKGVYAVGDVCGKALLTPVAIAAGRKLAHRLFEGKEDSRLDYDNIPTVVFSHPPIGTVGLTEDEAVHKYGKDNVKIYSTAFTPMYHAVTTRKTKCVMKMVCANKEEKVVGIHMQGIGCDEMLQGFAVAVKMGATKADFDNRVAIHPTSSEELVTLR", "experiment": "Inhibition of rat glutathione reductase by spectrophotometric method"}, "[13]": {"target": "T3, 6-phosphogluconate dehydrogenase, decarboxylating (Rattus norvegicus, UniProt P85968)", "T3 sequence (P85968 whole entry)": "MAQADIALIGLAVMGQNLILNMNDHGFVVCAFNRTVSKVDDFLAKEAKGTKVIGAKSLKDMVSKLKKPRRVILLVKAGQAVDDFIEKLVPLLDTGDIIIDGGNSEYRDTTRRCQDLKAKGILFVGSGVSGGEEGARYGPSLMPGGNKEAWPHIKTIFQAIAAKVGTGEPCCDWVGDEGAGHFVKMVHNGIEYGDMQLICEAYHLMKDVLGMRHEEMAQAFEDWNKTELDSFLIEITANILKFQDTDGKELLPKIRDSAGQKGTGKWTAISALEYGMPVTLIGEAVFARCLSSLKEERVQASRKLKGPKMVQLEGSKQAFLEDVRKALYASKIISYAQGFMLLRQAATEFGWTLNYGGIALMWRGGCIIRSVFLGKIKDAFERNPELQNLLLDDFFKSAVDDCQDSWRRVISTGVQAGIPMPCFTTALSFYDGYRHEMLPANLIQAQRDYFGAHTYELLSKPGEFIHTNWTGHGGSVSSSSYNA", "experiment": "Inhibition of rat 6PGD assessed as inhibition constant by spectrophotometric method"}, "[14]": {"target": "T3, 6-phosphogluconate dehydrogenase, decarboxylating", "experiment": "Inhibition of rat 6PGD by spectrophotometric method"}, "[15]": {"target": "Glucose-6-phosphate 1-dehydrogenase (Rattus norvegicus, UniProt P05370)", "sequence (P05370 whole entry)": "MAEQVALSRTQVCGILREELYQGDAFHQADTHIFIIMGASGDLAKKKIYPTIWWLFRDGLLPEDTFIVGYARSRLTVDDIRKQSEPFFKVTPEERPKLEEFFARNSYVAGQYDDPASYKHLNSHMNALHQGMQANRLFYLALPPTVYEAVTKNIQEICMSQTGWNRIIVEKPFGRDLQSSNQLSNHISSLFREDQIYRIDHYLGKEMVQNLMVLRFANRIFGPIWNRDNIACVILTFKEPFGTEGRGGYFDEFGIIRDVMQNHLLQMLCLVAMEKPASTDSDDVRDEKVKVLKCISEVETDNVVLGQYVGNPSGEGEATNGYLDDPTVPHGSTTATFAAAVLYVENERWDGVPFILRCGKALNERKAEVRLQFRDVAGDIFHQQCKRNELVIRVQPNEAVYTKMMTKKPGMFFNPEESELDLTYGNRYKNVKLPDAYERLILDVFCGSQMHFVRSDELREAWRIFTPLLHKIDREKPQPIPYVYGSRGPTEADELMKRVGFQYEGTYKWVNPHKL", "experiment": "Inhibition of rat G6PD by spectrophotometric method"}}, "note": "Active and inactive are the calls of the source. The rule behind the calls is not given here."}
{"smiles": "NC(=O)c1ccc(N)nc1", "note": "[6-AMINONICOTINAMIDE]", "values": [{"measurement": "activity outcome (qualitative)", "setting": "[1]; DDE = dose-dependent effect", "result": "Dde"}, {"measurement": "fold change (FC)", "setting": "[2]", "result": 2.5}, {"measurement": "fold change (FC)", "setting": "[3]", "result": 150}, {"measurement": "inhibition", "setting": "[4]", "result": "Active"}, {"measurement": "Activity", "setting": "[5]", "result": "Toxic"}, {"measurement": "fold change (FC)", "setting": "[6]", "result": 2}, {"measurement": "Activity", "setting": "[7]", "result": "Toxic"}]}
{"smiles": "CCOC(=O)OC(C)OC(=O)c1ccc(N)nc1", "note": "(stereo not given)", "values": [{"measurement": "activity outcome (qualitative)", "setting": "[1]; DDE = dose-dependent effect", "result": "Dde"}]}
{"smiles": "CC(=O)OCOC(=O)c1ccc(N)nc1", "values": [{"measurement": "activity outcome (qualitative)", "setting": "[1]", "result": "Active"}]}
{"smiles": "CCCC(=O)OCOC(=O)c1ccc(N)nc1", "values": [{"measurement": "activity outcome (qualitative)", "setting": "[1]", "result": "Active"}]}
{"smiles": "CCOC(=O)OCOC(=O)c1ccc(N)nc1", "values": [{"measurement": "activity outcome (qualitative)", "setting": "[1]; DDE = dose-dependent effect", "result": "Dde"}]}
{"smiles": "CC(OC(=O)OC1CCCCC1)OC(=O)c1ccc(N)nc1", "note": "(stereo not given)", "values": [{"measurement": "activity outcome (qualitative)", "setting": "[1]; DDE = dose-dependent effect", "result": "Dde"}, {"measurement": "inhibition", "setting": "[8]", "result": "Active"}, {"measurement": "inhibition", "setting": "[9]", "result": "Active"}, {"measurement": "Activity", "setting": "[5]", "result": "Non-Toxic"}, {"measurement": "inhibition", "setting": "[10]", "result": "Active"}, {"measurement": "fold change (FC)", "setting": "[11]", "result": 150}, {"measurement": "Activity", "setting": "A38-5", "result": "Active"}, {"measurement": "Activity", "setting": "[7]", "result": "Non-Toxic"}, {"measurement": "fold change (FC)", "setting": "[12]", "result": 2}]}
{"smiles": "NC(=O)c1ccc(N)[n+]([C@@H]2O[C@H](COP(=O)(O)OP(=O)(O)OC[C@H]3O[C@@H](n4cnc5c(N)ncnc54)[C@H](OP(=O)(O)O)[C@@H]3O)[C@@H](O)[C@H]2O)c1", "values": [{"measurement": "IC50", "setting": "Glutathione reductase", "result": 46, "unit": "µM"}, {"measurement": "Ki", "setting": "[13]", "result": 0.1, "unit": "µM"}, {"measurement": "IC50", "setting": "[14]", "result": 0.2, "unit": "µM"}, {"measurement": "IC50", "setting": "[15]", "result": 70, "unit": "µM"}]}
{"smiles": "CC(C)C(=O)OCOC(=O)c1ccc(N)nc1", "values": [{"measurement": "activity outcome (qualitative)", "setting": "[1]", "result": "Active"}]}
